# From ChEMBL document CHEMBL5325467, “Discovery of novel hypoxia-activated, nitroimidazole constructed multi-target kinase inhibitors on the basis of AZD9291 for the treatment of human lung cancer” (Bioorg Med Chem, 2023)
# Tests used:
# [1] = target: Epidermal growth factor receptor (Homo sapiens, UniProt P00533, L858R/T790M); assay: Inhibition of EGFR L858R/T790M mutant (unknown origin) by mobility shift assay
# [2] = target: Epidermal growth factor receptor (Homo sapiens, UniProt P00533); assay: Inhibition of wild type EGFR (unknown origin) by mobility shift assay
# [3] = Selectivity index, ratio of IC50 for inhibition of wild type EGFR (unknown origin) to IC50 for inhibition of EGFR L858R/T790M mutant (unknown origin)
# NCI-H1975 [4] = assay: Antiproliferative activity against human NCI-H1975 cells harboring EGFR L858R/T790M mutant assessed as inhibition of cell growth incubated for 72 hrs under normoxia condition by SRB assay; type: functional, cell-based; conditions: NCI-H1975, 72 h
# NCI-H1975 [5] = assay: Antiproliferative activity against human NCI-H1975 cells harboring EGFR L858R/T790M mutant assessed as inhibition of cell growth incubated for 72 hrs under hypoxia condition by SRB assay; type: functional, cell-based; conditions: NCI-H1975, 72 h
# [6] = Ratio of IC50 for antiproliferative activity against human NCI-H1975 cells harboring EGFR L858R/T790M mutant under normoxia condition to IC50 for antiproliferative activity against human NCI-H1975 cells harboring EGFR L858R/T790M mutant under hypoxia condition; type: functional
# HCC827 [7] = assay: Antiproliferative activity against human HCC827 cells harboring EGFR del19 mutant assessed as inhibition of cell growth incubated for 72 hrs under normoxia condition by SRB assay; type: functional, cell-based; conditions: HCC827, 72 h
# HCC827 [8] = assay: Antiproliferative activity against human HCC827 cells harboring EGFR del19 mutant assessed as inhibition of cell growth incubated for 72 hrs under hypoxia condition by SRB assay; type: functional, cell-based; conditions: HCC827, 72 h
# [9] = Ratio of IC50 for antiproliferative activity against human HCC827 cells harboring EGFR del19 mutant under normoxia condition to IC50 for antiproliferative activity against human HCC827 cells harboring EGFR del19 mutant under hypoxia condition; type: functional
# Epidermal growth factor receptor (Homo sapiens, UniProt P00533), sequence (P00533 whole entry): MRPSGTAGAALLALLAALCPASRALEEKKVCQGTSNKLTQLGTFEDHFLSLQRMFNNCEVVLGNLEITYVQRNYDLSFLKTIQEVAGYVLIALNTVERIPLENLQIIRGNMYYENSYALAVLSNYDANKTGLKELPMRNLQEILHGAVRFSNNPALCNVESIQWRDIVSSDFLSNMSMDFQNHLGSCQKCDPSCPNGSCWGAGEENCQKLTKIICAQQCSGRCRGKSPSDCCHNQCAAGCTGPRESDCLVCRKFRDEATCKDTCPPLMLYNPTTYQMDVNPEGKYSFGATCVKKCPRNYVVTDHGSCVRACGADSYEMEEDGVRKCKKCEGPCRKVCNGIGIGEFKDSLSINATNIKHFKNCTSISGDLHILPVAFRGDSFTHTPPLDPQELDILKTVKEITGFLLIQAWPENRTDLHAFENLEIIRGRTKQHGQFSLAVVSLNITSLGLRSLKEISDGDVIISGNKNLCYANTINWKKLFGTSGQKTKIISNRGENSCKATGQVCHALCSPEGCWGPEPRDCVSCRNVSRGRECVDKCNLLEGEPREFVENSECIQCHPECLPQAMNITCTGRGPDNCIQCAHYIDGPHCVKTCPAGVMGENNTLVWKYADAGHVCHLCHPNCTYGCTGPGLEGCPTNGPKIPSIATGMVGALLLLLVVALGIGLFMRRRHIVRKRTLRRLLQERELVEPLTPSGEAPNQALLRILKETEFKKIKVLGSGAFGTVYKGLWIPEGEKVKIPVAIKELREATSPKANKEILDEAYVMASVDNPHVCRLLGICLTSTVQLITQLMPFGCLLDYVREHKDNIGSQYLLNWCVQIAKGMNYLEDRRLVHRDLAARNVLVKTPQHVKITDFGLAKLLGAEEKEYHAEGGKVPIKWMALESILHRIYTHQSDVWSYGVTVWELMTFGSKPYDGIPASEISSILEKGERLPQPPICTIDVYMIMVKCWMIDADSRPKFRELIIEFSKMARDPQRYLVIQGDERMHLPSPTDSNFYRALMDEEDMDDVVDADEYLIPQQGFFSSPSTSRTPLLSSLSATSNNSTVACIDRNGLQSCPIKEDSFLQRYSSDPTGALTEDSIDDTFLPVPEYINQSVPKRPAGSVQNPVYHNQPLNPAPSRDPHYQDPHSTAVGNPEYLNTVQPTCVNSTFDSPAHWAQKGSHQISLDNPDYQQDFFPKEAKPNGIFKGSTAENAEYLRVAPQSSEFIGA
# Epidermal growth factor receptor (Homo sapiens, UniProt P00533, L858R/T790M), sequence (P00533 25-1210 T790M/L858R limits assumed): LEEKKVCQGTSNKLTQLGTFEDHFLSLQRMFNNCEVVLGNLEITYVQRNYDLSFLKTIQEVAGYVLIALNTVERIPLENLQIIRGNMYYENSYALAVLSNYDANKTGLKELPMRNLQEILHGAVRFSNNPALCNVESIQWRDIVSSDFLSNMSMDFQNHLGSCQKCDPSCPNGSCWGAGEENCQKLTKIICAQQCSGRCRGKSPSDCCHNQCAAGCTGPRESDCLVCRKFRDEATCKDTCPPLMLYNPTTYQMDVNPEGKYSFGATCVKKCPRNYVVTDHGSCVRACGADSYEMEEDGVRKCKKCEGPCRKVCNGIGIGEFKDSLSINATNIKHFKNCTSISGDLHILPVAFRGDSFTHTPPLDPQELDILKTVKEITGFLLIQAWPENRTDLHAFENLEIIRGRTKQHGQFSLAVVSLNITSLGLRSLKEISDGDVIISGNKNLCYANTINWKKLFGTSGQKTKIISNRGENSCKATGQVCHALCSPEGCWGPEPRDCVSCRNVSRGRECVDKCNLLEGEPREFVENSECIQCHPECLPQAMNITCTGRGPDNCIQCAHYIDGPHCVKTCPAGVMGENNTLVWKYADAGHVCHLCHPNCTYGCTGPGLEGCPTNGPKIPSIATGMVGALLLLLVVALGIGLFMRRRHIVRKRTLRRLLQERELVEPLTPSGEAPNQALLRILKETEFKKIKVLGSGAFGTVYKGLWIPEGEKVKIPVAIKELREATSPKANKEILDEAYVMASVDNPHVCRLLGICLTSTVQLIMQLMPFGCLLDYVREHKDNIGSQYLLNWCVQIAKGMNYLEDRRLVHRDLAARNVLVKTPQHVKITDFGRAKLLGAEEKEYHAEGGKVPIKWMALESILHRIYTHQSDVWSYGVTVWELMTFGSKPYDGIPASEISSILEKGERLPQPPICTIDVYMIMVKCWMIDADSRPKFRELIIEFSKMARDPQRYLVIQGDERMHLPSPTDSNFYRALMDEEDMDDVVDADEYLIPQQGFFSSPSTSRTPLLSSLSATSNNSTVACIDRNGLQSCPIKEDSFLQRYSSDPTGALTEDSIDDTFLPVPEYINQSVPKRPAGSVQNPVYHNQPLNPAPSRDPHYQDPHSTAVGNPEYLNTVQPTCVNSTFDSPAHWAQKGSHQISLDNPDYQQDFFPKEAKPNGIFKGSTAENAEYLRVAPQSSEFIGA
IC50 [1] [nM],IC50 [2] [nM],Ratio IC50 [3],SMILES,further results
227,3570,15.7,Cn1cc(-c2ccnc(Nc3cccc(OCCCCn4ccnc4[N+](=O)[O-])c3)n2)c2ccccc21,
199,7660,,Cn1cc(-c2ccnc(Nc3cc(OCCOCCn4ccnc4[N+](=O)[O-])ccc3F)n2)c2ccccc21,IC50 (NCI-H1975 [4]): 31 nM; IC50 (NCI-H1975 [5]): 7.59 nM; Ratio IC50 [6]: 4.08; IC50 (HCC827 [7]): 32.1 nM; IC50 (HCC827 [8]): 6.28 nM; Ratio IC50 [9]: 5.11
722,> 10000,> 13.8,Cn1cc(-c2ccnc(Nc3ccc(OCCOCCn4ccnc4[N+](=O)[O-])c(F)c3)n2)c2ccccc21,
829,,,Cn1cc(-c2ccnc(Nc3ccc(OCCCCn4cnc([N+](=O)[O-])c4)c(F)c3)n2)c2ccccc21,
,,,C=CC(=O)Nc1cc(Nc2nccc(-c3cn(C)c4ccccc34)n2)c(OC)cc1N(C)CCN(C)C [OSIMERTINIB],IC50 (NCI-H1975 [4]): […]; IC50 (NCI-H1975 [5]): […]; IC50 (HCC827 [7]): 33.7 nM; IC50 (HCC827 [8]): 32.3 nM
1180,,,Cn1cc(-c2ccnc(Nc3ccc(OCCCCn4ccnc4[N+](=O)[O-])cc3)n2)c2ccccc21,
1310,,,Cc1ccc(OCCOCCn2ccnc2[N+](=O)[O-])cc1Nc1nccc(-c2cn(C)c3ccccc23)n1,
442,4000,9.05,Cn1cc(-c2ccnc(Nc3cccc(OCCOCCn4ccnc4[N+](=O)[O-])c3)n2)c2ccccc21,
